Data: patent publication US7368420B1, “Akt compositions for enhancing survival of cells” (Caritas St. Elizabeth's Medical Center of Boston, Inc., priority 1998, dated 2008)
“Also recorded” adds a separate entry of the source.

Tests used:
[1] = tested on: C2C12 cells; experiment: Flow cytometry (FACS) cell cycle analysis during myogenic differentiation; type: cell-based, murine; conditions: percentage of cells; differentiation media, 0.5 mM oligonucleotide, 24 hours; DNA content by FACS
[2] = tested on: HUVECs; experiment: HUVEC cell viability, Trypan-blue exclusion assay; type: cell-based, human; conditions: 100 ng/ml VEGF, serum-free DMEM, 21 hours
[3] = tested on: Akt2; experiment: Akt2 kinase assay (histone H2B) in HUVEC lysates; type: cell-based, human; conditions: serum-deprived HUVEC, VEGF 100 ng/ml, 15 min
[4] = tested on: HUVECs; experiment: HUVEC plasmid co-transfection cell-death assay (surviving β-galactosidase-positive cells); type: cell-based, human; conditions: 25 ng/ml VEGF, serum-free 21 hrs, control plasmid
[5] = tested on: p21; experiment: Western immunoblot of C2C12 lysates, anti-p21; type: cell-based, murine; conditions: differentiation media with Lipofectin, 24 hours
[6] = tested on: Akt; type: cell-based, murine
[7] = tested on: C2C12 cells; type: cell-based, murine
[8] = tested on: Cdk4; experiment: Western immunoblot of C2C12 lysates, anti-Cdk4; type: cell-based, murine; conditions: differentiation media with Lipofectin, 24 hours
[9] = tested on: neonatal rat cardiac myocytes; experiment: Neonatal cardiac myocyte viability, trypan-blue exclusion assay; type: cell-based
[10] = tested on: cardiomyocytes; experiment: TUNEL analysis of cultured cardiomyocytes; type: cell-based, rat; conditions: increasing concentrations of IGF-1, mock- and Adeno-β-gal-transfected cells, 48 hours
[11] = tested on: cardiac myocytes; experiment: Hoechst 33342 staining for pyknotic nuclei in cardiac myocytes; type: cell-based, rat; conditions: serum-free media with IGF-1
[12] = tested on: Akt; experiment: Akt kinase assay (histone H2B) in cardiac myocyte lysates; type: cell-based, rat; conditions: serum-deprived, 50 ng/ml IGF-1, 15 min

Sequence of Akt (P31750 whole entry): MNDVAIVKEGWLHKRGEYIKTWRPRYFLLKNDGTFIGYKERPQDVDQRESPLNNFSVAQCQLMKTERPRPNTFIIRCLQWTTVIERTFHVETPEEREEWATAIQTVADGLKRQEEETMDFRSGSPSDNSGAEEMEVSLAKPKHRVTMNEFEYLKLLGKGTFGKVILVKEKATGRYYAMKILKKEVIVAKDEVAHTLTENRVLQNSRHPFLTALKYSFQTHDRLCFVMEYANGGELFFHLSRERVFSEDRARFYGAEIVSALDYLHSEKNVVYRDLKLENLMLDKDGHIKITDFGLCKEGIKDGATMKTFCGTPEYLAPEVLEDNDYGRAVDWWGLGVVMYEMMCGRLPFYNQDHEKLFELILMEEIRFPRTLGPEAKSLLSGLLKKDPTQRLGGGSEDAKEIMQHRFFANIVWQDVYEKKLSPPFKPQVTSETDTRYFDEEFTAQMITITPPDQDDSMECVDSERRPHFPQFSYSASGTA

Substance: 5′-TGG ATC CGA CAT GTC AGA-3′ (TGGATCCGACATGTCAGA; all phosphorothioate, sugars by position and methylation of C not given here) [Control]
- Cell cycle phase G0/G1 [1]: 67
- Cell cycle phase G2/M [1]: 8
- Cell cycle phase S [1]: 25

Substance: VEGF
- cell loss induced by serum-deprivation [2]: completely reversed cell loss induced by serum-deprivation
- Akt2 kinase activity [3]: little or no activation of Akt2
- increase in number of surviving β-galactosidase positive cells (factor) [4]: 3

Substance: 5′-TGTCAGGCTGGTCTGCCTCC-3′ (antisense TGTCAGGCTGGTCTGCCTCC; chemistry not given here) [p21-AS]
- Cell cycle phase G0/G1 [1]: 38
- Cell cycle phase G2/M [1]: 17
- Cell cycle phase S [1]: 45
- induction of p21 [5]: markedly inhibited the induction of p21
- Akt expression [6]: statistically significant reduction in Akt expression
- cell-death versus control cultures [7]: Markedly enhanced cell-death
- cdk4 expression [8]: no significant effect on cdk4

Substance: IGF-1: Insulin-like growth factor-1, purchased from Gibco BRL
- time cardiac myocyte viability was sustained ([9]; 50 ng/ml IGF-1, serum-depleted): more than 48 hours
- cardiac myocyte viability / cytoprotection by IGF-1 ([9]; serum-free media, up to 72 hours): dependent on the dose of IGF-1; also recorded: maintained
- frequency of myocyte apoptosis (TUNEL) [10]: reduced the frequency of myocyte apoptosis
- incidence of pyknotic nuclei [11]: suppressed the incidence of pyknotic nuclei
- Akt activity (phosphorylation of histone H2B) [12]: induced the phosphorylation of histone H2B
